Assay results taken from patent US10443018B2, “Phenyl based compounds substituted with aldehyde moieties and their use in perfumery” (GIVAUDAN SA, priority 2014, dated 2019).

Experiments:
[1] = system: Cryopreserved hepatocytes from male rats (Sprague Dawley); test: In vitro metabolism study in rat hepatocytes in suspension (GC-MS); conditions: for Residual conc.: male, Sprague Dawley, rat, 4 h, 100 μM
Experimental: In order to study in vitro metabolism in rat hepatocytes, Lilial™ and compounds of the present invention may be incubated in the presence of rat hepatocytes in suspension. Reduction in the concentration of Lilial™ and the compounds of the present invention and formation of any of the corresponding benzoic acid derivatives may be analysed by GC-MS.
Cryopreserved hepatocytes from male rats (Sprague Dawley; Lifetechnologies) were defrozen, washed in Cyropreserved Hepatocytes Recovery Medium (CHRM; Lifetechnologies) and suspended in Williams E Medium (WEM; Lifetechnologies). Lilial™, or the compounds of the present invention (final concentration: 100 μM) were added to the cells (1×10^6 viable cells/ml) and suspensions were incubated up to 4 hours at 37° C. on a shaker in duplicate. Metabolism of testosterone was monitored as positive control. Decrease of the test compounds and formation of the corresponding benzoic acid derivative was determined by GC-MS analysis of methyl esters formed after derivatisation with trimethylsilyl diazomethane (Sigma-Aldrich) in methanol. The test compounds react with diazomethane yielding a methyl ketone which was used for the quantification of Lilial™ and the compound of formula (I). Metabolism was stopped with ice cold 1 M HCl, samples were extracted with tert-butyl methyl ether (MTBE) and analysed by GC-MS. Incubations containing testosterone as control were also stopped with ice cold 1 M HCl, centrifuged to separate the cells, filtrated and the decrease of testosterone analysed by LC-MS.

[2] = system: guinea-pigs; conditions: guinea pig, in vivo; cited from earlier work
[3] = system: mice; conditions: mouse, in vivo; cited from earlier work
[4] = system: reproductive organs of dogs; conditions: dog, in vivo; cited from earlier work
[5] = system: reproductive organs of male rats; conditions: rat, in vivo; cited from earlier work
[6] = system: primates; conditions: cited from earlier work

Cc1ccc(CCC=O)c(CC(C)C)c1
Residual conc. [1]: 0 µM

Cc1cc(CCC=O)cc(CC(C)C)c1 [Compound 1, 3-(3-Isobutyl-5-methylphenyl)propanal]
Residual conc. [1]: 1.5 µM

CC(C=O)Cc1ccc(C(C)(C)C)cc1 (stereo not drawn) [Lilial, 3-(4-tert-butylphenyl)-2-methylpropanal]
effects in toxicity studies [2]: No effects
effects in toxicity studies [3]: No effects
toxic effects on the reproductive organs [4]: toxic effects
toxic effects on the reproductive organs [5]: toxic effects
effects in toxicity studies [6]: No effects
Residual conc. [1]: 0 µM

C[C@]12CC[C@H]3[C@@H](CCC4=CC(=O)CC[C@@]43C)[C@@H]1CC[C@@H]2O [testosterone]
decrease of testosterone (positive control) ([1]; rat hepatocytes, LC-MS): rapid decrease
